Consider one compound from ChEMBL document CHEMBL4373747 (ACS Med Chem Lett, 2020).

SMILES strings stand for the structures. Bounds are passed on as bounds.

Data set [1] is described as follows: Protein binding in CD-1 mouse plasma at 1 uM incubated for 6 hrs by LCMS analysis. The data set is classed as ADME, cell-free. The settings on record: CD-1, mouse, read-out: PPB (converted).
Data set [2] concerns the target T1, Protein deacetylase HDAC6 (Homo sapiens) (UniProt Q9UBN7).
T1 sequence (whole entry): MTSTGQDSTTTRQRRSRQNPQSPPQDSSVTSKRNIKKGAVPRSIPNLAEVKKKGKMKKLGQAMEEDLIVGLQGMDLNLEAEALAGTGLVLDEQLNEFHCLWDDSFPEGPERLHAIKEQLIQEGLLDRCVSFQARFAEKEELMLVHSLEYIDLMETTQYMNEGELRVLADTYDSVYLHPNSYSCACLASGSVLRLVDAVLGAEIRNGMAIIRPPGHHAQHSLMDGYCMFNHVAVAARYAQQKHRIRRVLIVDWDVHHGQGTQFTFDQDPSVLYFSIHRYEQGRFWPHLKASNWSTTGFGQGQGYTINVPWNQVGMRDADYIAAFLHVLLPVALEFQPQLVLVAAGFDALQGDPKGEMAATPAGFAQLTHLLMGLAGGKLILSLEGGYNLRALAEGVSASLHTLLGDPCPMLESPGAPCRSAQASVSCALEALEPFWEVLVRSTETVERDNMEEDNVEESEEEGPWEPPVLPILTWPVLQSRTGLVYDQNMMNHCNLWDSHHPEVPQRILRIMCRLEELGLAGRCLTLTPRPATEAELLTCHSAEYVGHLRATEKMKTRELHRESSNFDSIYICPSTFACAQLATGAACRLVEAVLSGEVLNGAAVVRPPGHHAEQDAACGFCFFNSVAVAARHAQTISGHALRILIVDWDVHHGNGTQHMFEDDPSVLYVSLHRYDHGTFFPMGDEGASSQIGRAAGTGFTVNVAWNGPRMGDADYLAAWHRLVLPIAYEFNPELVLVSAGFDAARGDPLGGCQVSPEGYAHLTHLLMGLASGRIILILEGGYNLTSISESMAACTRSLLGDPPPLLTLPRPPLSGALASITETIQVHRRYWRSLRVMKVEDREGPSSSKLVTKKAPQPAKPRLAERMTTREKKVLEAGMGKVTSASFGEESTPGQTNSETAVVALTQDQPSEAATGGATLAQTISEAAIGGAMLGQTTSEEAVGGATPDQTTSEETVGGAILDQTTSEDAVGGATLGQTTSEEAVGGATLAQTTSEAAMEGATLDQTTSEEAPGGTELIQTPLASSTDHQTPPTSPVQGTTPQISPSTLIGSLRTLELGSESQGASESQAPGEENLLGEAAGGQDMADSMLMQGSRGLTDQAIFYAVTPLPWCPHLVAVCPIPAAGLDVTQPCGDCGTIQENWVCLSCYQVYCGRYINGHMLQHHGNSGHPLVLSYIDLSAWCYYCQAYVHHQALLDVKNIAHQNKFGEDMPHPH
In words: Inhibition of HDAC6 in human MV4-11 cells assessed as increase in acetylated alpha-tubulin incubated for 6 hrs by Western blot analysis. Type of data set: cell-based. A general note: A western blot detects proteins with antibodies after separation by electrophoresis.

Data set [3] in a line: Cmax in NSG mouse. The settings on record: in vivo. The data set is classed as ADME.
Data set [4] is described as follows: Tmax in NSG mouse. Type of data set: ADME. The settings on record: in vivo.
Data set [5] deals with MV4-11. Kind of data set: Induction of apoptosis in human MV4-11 cells assessed as viable cells at 2 uM incubated for 18 hrs by annexin V FITC and PI based flow cytometry (reference value: 53.01 to 53.07 %). Type of data set: functional. The settings on record: Homo sapiens, MV4-11, 18 h; read-out: Activity.
Data set [6] has as its target T2, Polyamine deacetylase HDAC10 (Homo sapiens, UniProt Q969S8).
T2 sequence (Q969S8 whole entry): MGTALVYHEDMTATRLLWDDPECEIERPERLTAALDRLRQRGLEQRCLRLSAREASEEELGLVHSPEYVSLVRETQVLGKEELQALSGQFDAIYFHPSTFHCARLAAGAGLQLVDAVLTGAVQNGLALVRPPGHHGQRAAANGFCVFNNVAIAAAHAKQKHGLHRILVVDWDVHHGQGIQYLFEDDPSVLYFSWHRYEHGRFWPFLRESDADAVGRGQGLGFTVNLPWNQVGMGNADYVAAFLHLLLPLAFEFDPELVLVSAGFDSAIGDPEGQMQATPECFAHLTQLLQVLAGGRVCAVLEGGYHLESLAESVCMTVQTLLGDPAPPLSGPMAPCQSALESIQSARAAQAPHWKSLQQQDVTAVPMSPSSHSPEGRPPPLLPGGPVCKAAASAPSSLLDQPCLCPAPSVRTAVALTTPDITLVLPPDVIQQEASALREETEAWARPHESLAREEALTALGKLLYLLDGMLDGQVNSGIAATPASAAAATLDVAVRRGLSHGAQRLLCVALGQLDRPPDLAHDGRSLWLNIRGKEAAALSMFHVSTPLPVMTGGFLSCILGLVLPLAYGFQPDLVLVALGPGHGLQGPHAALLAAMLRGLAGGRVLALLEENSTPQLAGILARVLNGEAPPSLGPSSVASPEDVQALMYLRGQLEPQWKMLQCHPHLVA
Kind of data set: Inhibition of recombinant full length human HDAC10 expressed in baculovirus infected Sf9 cells using FAM-RHKK-Ac as substrate incubated for 17 hrs by electrophoretic mobility shift assay.

Data set [7] can be described thus: Efflux ratio of apparent permeability in human Caco2 cells incubated for 2 hrs by LC/MS analysis. The data set is classed as ADME, cell-based, Caco-2. The settings on record: Caco-2.
The subject of data set [8] is MV4-11. Kind of data set: Induction of apoptosis in human MV4-11 cells assessed as viable cells at 4 uM incubated for 18 hrs by annexin V FITC and PI based flow cytometry (reference value: 53.01 to 53.07 %). The settings on record: Homo sapiens, MV4-11, 18 h; read-out: Activity. The data set is classed as functional. For orientation: A flow cytometer gives signals particle by particle.

For the next data set, the system named is MDA-MB-468. In words: Cytotoxicity against human MDA-MB-468 cells assessed as reduction in cell viability incubated for 72 hrs by cell-titer blue assay. The settings on record: MDA-MB-468, 72 h. Type of data set: functional, cell-based.
Data set [9] deals with MV4-11. In words: Induction of apoptosis in human MV4-11 cells assessed as late apoptotic cells at 4 uM incubated for 18 hrs by annexin V FITC and PI based flow cytometry (reference value: 9.2 to 9.63 %). The data set is classed as functional.
A further data set concerns the target Histone deacetylase 9 (Homo sapiens, UniProt Q9UKV0). In words: Inhibition of recombinant human HDAC9 (604-1066 residues) expressed in baculovirus infected Sf9 cells using FAM-RHKK-TFAc as substrate incubated for 3 hrs by electrophoretic mobility shift assay.

Chain of Histone deacetylase 9 (Q9UKV0 whole entry, the tested form may be a part): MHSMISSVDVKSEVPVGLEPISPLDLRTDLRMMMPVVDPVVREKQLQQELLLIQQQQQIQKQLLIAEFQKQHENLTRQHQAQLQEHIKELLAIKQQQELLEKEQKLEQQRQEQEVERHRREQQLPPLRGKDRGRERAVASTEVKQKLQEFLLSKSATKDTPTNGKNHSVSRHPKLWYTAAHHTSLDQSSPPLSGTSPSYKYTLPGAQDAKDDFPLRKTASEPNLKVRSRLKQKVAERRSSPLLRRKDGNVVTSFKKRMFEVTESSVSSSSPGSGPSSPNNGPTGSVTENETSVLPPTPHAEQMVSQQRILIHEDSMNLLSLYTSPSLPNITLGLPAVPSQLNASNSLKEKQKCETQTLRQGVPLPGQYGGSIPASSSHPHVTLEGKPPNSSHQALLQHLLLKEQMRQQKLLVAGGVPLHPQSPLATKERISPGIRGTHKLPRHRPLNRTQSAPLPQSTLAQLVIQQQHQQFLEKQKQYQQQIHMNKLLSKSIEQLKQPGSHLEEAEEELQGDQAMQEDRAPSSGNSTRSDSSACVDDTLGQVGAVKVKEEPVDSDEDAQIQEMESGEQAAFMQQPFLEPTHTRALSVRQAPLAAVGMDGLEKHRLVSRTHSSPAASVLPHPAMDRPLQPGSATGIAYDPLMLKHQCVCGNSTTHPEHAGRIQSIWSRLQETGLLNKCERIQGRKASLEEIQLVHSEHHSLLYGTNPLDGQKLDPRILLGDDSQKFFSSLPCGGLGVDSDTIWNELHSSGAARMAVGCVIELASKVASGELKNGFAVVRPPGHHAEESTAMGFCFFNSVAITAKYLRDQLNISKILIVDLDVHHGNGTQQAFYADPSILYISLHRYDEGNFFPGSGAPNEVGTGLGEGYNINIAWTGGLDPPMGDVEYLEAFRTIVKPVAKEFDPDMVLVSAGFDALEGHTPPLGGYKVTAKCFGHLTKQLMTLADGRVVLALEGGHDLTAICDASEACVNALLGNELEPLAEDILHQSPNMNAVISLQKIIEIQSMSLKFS

As usually defined, the Cmax is the peak of the concentration-time curve. A word on the Tmax: it is the time at which the peak concentration occurs. Usually IC50 stands for the concentration that inhibits the measured activity by half. One may read the efflux ratio as a quotient of directional permeabilities that is used to spot active efflux. Turning to `CC(C)(C)c1ccc(C(=O)Nc2ccc(C(=O)NO)cc2)cc1`, the fraction unbound at 6 h, 1 µM in [1] is 0.047. For the same compound, the inhibition entry in data set [2] was “Dose-dependent effect”. Also, the peak level in data set [3] (Cmax) was 10.7 µM. Besides, in [4], the Tmax is 8 h. Also, in the data set on MV4-11 [5], the viability at 2 µM worked out at 22.1%. Moreover, the 50% inhibitory concentration (IC50) was 899 nM in data set [6], more than 50 µM with MDA-MB-468 and more than 1000 nM on Histone deacetylase 9. Moreover, the efflux ratio at 2 h in data set [7] was determined as 0.64. The viability at 4 µM in the data set with MV4-11 [8] stood at 16.3%. In the data set on MV4-11 [9], the Activity is on record as 38.48%.
